Laboratory results as given in PubChem BioAssay AID2060343 (Molecular Pharmacology Branch, DTP, NCI, 2025).
pIC50: −log10 of the molar value.

Tested on: 138582-337-R-J1-PDC spheroids with HUVEC/MSC, viability
Assay: Anticancer human tumor 138582-337-R-J1-PDC patient-derived Merkel cell tumor cell line growth inhibition [IpAb]
Settings: for pIC50: curve of first compound; for viability, T/C: stronger effect = lower value
Outline: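 Combinations with ipatasertib or abemaciclib were tested on tumour spheroids holding HUVEC (25%) and MSC (15%) alongside 60% malignant cells. Top concentration was at or near clinical Cmax (10 microM if undefined), descending in half-log steps.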

[1] = second compound 0.1 µM, first compound 0.0316 µM
[2] = second compound 0.1 µM, first compound 0.1 µM
[3] = second compound 0.1 µM, first compound 0.316 µM
[4] = second compound 0.1 µM, first compound 1 µM
[5] = second compound 0.1 µM, first compound 3.16 µM
[6] = second compound 0.1 µM, first compound 10 µM
[7] = second compound 0.316 µM, first compound 0.0316 µM
[8] = second compound 0.316 µM, first compound 0.1 µM
[9] = second compound 0.316 µM, first compound 0.316 µM
[10] = second compound 0.316 µM, first compound 1 µM
[11] = second compound 0.316 µM, first compound 3.16 µM
[12] = second compound 0.316 µM, first compound 10 µM
[13] = second compound 1 µM, first compound 0.0316 µM
[14] = second compound 1 µM, first compound 0.1 µM
[15] = second compound 1 µM, first compound 0.316 µM
[16] = second compound 1 µM, first compound 1 µM
[17] = second compound 1 µM, first compound 3.16 µM
[18] = second compound 1 µM, first compound 10 µM
[19] = second compound 3.16 µM, first compound 0.0316 µM
[20] = second compound 3.16 µM, first compound 0.1 µM
[21] = second compound 10 µM, first compound 0.0316 µM
[22] = second compound 10 µM, first compound 0.1 µM
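Also: spheroids exposed to compounds for seven days.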
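For viability, T/C in this document: 100% = DMSO vehicle control viability.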

## Cn1ncc(Cl)c1-c1cc(C(=O)NC(CN)Cc2cccc(F)c2)sc1Cl (stereo not given) + CC(C)NCC(C(=O)N1CCN(c2ncnc3c2C(C)CC3O)CC1)c1ccc(Cl)cc1
Second compound 0.1 µM
  pIC50: 5.52
Second compound 0.316 µM
  pIC50: 5.42
Second compound 1 µM
  pIC50: 5.48
Second compound 3.16 µM
  pIC50: 5.47
Second compound 10 µM
  pIC50: 6.16
[1]
  viability, T/C: 89.4%
[2]
  viability, T/C: 83%
[3]
  viability, T/C: 75.9%
[4]
  viability, T/C: 61.4%
[5]
  viability, T/C: 57.4%
[6]
  viability, T/C: 0.26%
[7]
  viability, T/C: 80.7%
[8]
  viability, T/C: 67.3%
[9]
  viability, T/C: 74.2%
[10]
  viability, T/C: 64.8%
[11]
  viability, T/C: 61.5%
[12]
  viability, T/C: 0.25%
[13]
  viability, T/C: 71.7%
[14]
  viability, T/C: 73.1%
[15]
  viability, T/C: 75.7%
[16]
  viability, T/C: 55.7%
[17]
  viability, T/C: 56.8%
[18]
  viability, T/C: 0.23%
[19]
  viability, T/C: 60.5%
[20]
  viability, T/C: 62%
Second compound 3.16 µM, first compound 0.316 µM
  viability, T/C: 55.9%
Second compound 3.16 µM, first compound 1 µM
  viability, T/C: 58%
Second compound 3.16 µM, first compound 3.16 µM
  viability, T/C: 53.6%
Second compound 3.16 µM, first compound 10 µM
  viability, T/C: 0.23%
[21]
  viability, T/C: 53.1%
[22]
  viability, T/C: 45.6%
Second compound 10 µM, first compound 0.316 µM
  viability, T/C: 51.8%
Second compound 10 µM, first compound 1 µM
  viability, T/C: 50.8%
Second compound 10 µM, first compound 3.16 µM
  viability, T/C: 44.6%
Second compound 10 µM, first compound 10 µM
  viability, T/C: 0.3%

## Cn1ncnc1[C@H]1c2n[nH]c(=O)c3cc(F)cc(c23)N[C@@H]1c1ccc(F)cc1 + CC(C)NCC(C(=O)N1CCN(c2ncnc3c2C(C)CC3O)CC1)c1ccc(Cl)cc1
Second compound 0.1 µM
  pIC50: < 7.00
Second compound 0.316 µM
  pIC50: < 7.00
Second compound 1 µM
  pIC50: < 7.00
Second compound 3.16 µM
  pIC50: < 7.00
Second compound 10 µM
  pIC50: > 9.50
Second compound 0.1 µM, first compound 0.000316 µM
  viability, T/C: 99.1%
Second compound 0.1 µM, first compound 0.001 µM
  viability, T/C: 83%
Second compound 0.1 µM, first compound 0.00316 µM
  viability, T/C: 89.1%
Second compound 0.1 µM, first compound 0.01 µM
  viability, T/C: 78.3%
[1]
  viability, T/C: 78.6%
[2]
  viability, T/C: 82.9%
Second compound 0.316 µM, first compound 0.000316 µM
  viability, T/C: 69.7%
Second compound 0.316 µM, first compound 0.001 µM
  viability, T/C: 81.8%
Second compound 0.316 µM, first compound 0.00316 µM
  viability, T/C: 64.5%
Second compound 0.316 µM, first compound 0.01 µM
  viability, T/C: 70.9%
[7]
  viability, T/C: 72%
[8]
  viability, T/C: 74%
Second compound 1 µM, first compound 0.000316 µM
  viability, T/C: 72.8%
Second compound 1 µM, first compound 0.001 µM
  viability, T/C: 64.2%
Second compound 1 µM, first compound 0.00316 µM
  viability, T/C: 68%
Second compound 1 µM, first compound 0.01 µM
  viability, T/C: 72.7%
[13]
  viability, T/C: 74.2%
[14]
  viability, T/C: 62%
Second compound 3.16 µM, first compound 0.000316 µM
  viability, T/C: 58.1%
Second compound 3.16 µM, first compound 0.001 µM
  viability, T/C: 67.6%
Second compound 3.16 µM, first compound 0.00316 µM
  viability, T/C: 59.2%
Second compound 3.16 µM, first compound 0.01 µM
  viability, T/C: 55.2%
[19]
  viability, T/C: 51.3%
[20]
  viability, T/C: 54.8%
Second compound 10 µM, first compound 0.000316 µM
  viability, T/C: 38.2%
Second compound 10 µM, first compound 0.001 µM
  viability, T/C: 46.7%
Second compound 10 µM, first compound 0.00316 µM
  viability, T/C: 42.4%
Second compound 10 µM, first compound 0.01 µM
  viability, T/C: 39.2%
[21]
  viability, T/C: 38.9%
[22]
  viability, T/C: 40.2%

## C=CCn1c(=O)c2cnc(Nc3ccc(N4CCN(C)CC4)cc3)nc2n1-c1cccc(C(C)(C)O)n1 + CCN1CCN(Cc2ccc(Nc3ncc(F)c(-c4cc(F)c5nc(C)n(C(C)C)c5c4)n3)nc2)CC1
Second compound 0.01 µM
  pIC50: < 5.00
Second compound 0.0316 µM
  pIC50: < 5.00
Second compound 0.1 µM
  pIC50: < 5.00
Second compound 0.316 µM
  pIC50: < 5.00
Second compound 1 µM
  pIC50: < 5.00
Second compound 0.01 µM, first compound 0.0316 µM
  viability, T/C: 105%
Second compound 0.01 µM, first compound 0.1 µM
  viability, T/C: 95.3%
Second compound 0.01 µM, first compound 0.316 µM
  viability, T/C: 100%
Second compound 0.01 µM, first compound 1 µM
  viability, T/C: 90.4%
Second compound 0.01 µM, first compound 3.16 µM
  viability, T/C: 117%
Second compound 0.01 µM, first compound 10 µM
  viability, T/C: 141%
Second compound 0.0316 µM, first compound 0.0316 µM
  viability, T/C: 106%
Second compound 0.0316 µM, first compound 0.1 µM
  viability, T/C: 99.5%
Second compound 0.0316 µM, first compound 0.316 µM
  viability, T/C: 90.9%
Second compound 0.0316 µM, first compound 1 µM
  viability, T/C: 99.1%
Second compound 0.0316 µM, first compound 3.16 µM
  viability, T/C: 101%
Second compound 0.0316 µM, first compound 10 µM
  viability, T/C: 133%
[1]
  viability, T/C: 91.4%
[2]
  viability, T/C: 98.7%
[3]
  viability, T/C: 91.7%
[4]
  viability, T/C: 90.3%
[5]
  viability, T/C: 116%
[6]
  viability, T/C: 141%
[7]
  viability, T/C: 86.4%
[8]
  viability, T/C: 96.2%
[9]
  viability, T/C: 87.6%
[10]
  viability, T/C: 94.1%
[11]
  viability, T/C: 116%
[12]
  viability, T/C: 144%
[13]
  viability, T/C: 102%
[14]
  viability, T/C: 109%
[15]
  viability, T/C: 101%
[16]
  viability, T/C: 105%
[17]
  viability, T/C: 114%
[18]
  viability, T/C: 134%

## Cn1cnc2c(F)c(Nc3ccc(Br)cc3Cl)c(C(=O)NOCCO)cc21 + CCN1CCN(Cc2ccc(Nc3ncc(F)c(-c4cc(F)c5nc(C)n(C(C)C)c5c4)n3)nc2)CC1
Second compound 0.01 µM
  pIC50: < 5.52
Second compound 0.0316 µM
  pIC50: < 5.52
Second compound 0.1 µM
  pIC50: < 5.52
Second compound 0.316 µM
  pIC50: < 5.52
Second compound 1 µM
  pIC50: 5.73
Second compound 0.01 µM, first compound 0.00949 µM
  viability, T/C: 102%
Second compound 0.01 µM, first compound 0.03 µM
  viability, T/C: 94.5%
Second compound 0.01 µM, first compound 0.0949 µM
  viability, T/C: 75.3%
Second compound 0.01 µM, first compound 0.3 µM
  viability, T/C: 81.2%
Second compound 0.01 µM, first compound 0.949 µM
  viability, T/C: 94%
Second compound 0.01 µM, first compound 3 µM
  viability, T/C: 93.1%
Second compound 0.0316 µM, first compound 0.00949 µM
  viability, T/C: 94.8%
Second compound 0.0316 µM, first compound 0.03 µM
  viability, T/C: 91%
Second compound 0.0316 µM, first compound 0.0949 µM
  viability, T/C: 67.1%
Second compound 0.0316 µM, first compound 0.3 µM
  viability, T/C: 79.6%
Second compound 0.0316 µM, first compound 0.949 µM
  viability, T/C: 86.8%
Second compound 0.0316 µM, first compound 3 µM
  viability, T/C: 88.3%
Second compound 0.1 µM, first compound 0.00949 µM
  viability, T/C: 102%
Second compound 0.1 µM, first compound 0.03 µM
  viability, T/C: 88.2%
Second compound 0.1 µM, first compound 0.0949 µM
  viability, T/C: 78.3%
Second compound 0.1 µM, first compound 0.3 µM
  viability, T/C: 68.7%
Second compound 0.1 µM, first compound 0.949 µM
  viability, T/C: 76.9%
Second compound 0.1 µM, first compound 3 µM
  viability, T/C: 73.1%
Second compound 0.316 µM, first compound 0.00949 µM
  viability, T/C: 88.8%
Second compound 0.316 µM, first compound 0.03 µM
  viability, T/C: 90.8%
Second compound 0.316 µM, first compound 0.0949 µM
  viability, T/C: 83%
Second compound 0.316 µM, first compound 0.3 µM
  viability, T/C: 66%
Second compound 0.316 µM, first compound 0.949 µM
  viability, T/C: 72.9%
Second compound 0.316 µM, first compound 3 µM
  viability, T/C: 56.3%
Second compound 1 µM, first compound 0.00949 µM
  viability, T/C: 96.1%
Second compound 1 µM, first compound 0.03 µM
  viability, T/C: 90.2%
Second compound 1 µM, first compound 0.0949 µM
  viability, T/C: 78%
Second compound 1 µM, first compound 0.3 µM
  viability, T/C: 74.5%
Second compound 1 µM, first compound 0.949 µM
  viability, T/C: 73.1%
Second compound 1 µM, first compound 3 µM
  viability, T/C: 37.1%
